We go through two compounds from patent US7785583B2, “In situ maturation of dendritic cells” (Argos Therapeutics, Inc., priority 2002, dated 2010).

In assay [1] the test system is immature DC injected into the ear pinna. The assay is described as follows: Migration of CFSE-labelled injected DC to the draining auricular lymph node (flow cytometry). Type of assay: in vivo, mice (C57BL/6). Conditions: interval between adjuvant application and DC injection extended to 4 hours; determined as in FIG. 3. The method, then:
FIG. 3 depicts flow cytometry analysis of the migration of DC to the draining lymph nodes. Immature or mature DC were transfected with OVA mRNA and incubated with CFSE. Cells were washed and 3×10^5 DC were injected into the ear pinna. […] United States of America). Twenty-four hours post […] of the DC, the draining auricular lymph node was dissected, a cell suspension generated, and cells were analyzed by flow cytometry. To identify the DC subset, cells gated for CD11c^+ granular cells (upper panels) were analyzed for class II expression and CFSE content (lower panels). Injected DC are class II^high CFSE^+ (UR quadroon) whereas the class II^highCFSE^− represent the resident and newly arrived, endogenous, DC (UL quadroon). The percentages shown in the UR quadroons constitute the percentage of CFSE^+ DC injected into the ear found in the lymph node.
Marrow from tibias and femurs of C57BL/6 mice were harvested followed by treatment of the precursors with ammonium chloride Tris buffer for 3 min at 37° C. to deplete the red blood cells. The precursors were plated in RPMI-5% FCS with GM-CSF (15 ng/ml) and IL-4 (10 ng/ml). GM-CSF-containing supernatant was harvested after 24 h capillary culture from GM-CSF producing melanoma cell line (F10.9/GM-CSF) and IL-4 was obtained from Peprotech (Rocky Hill, N.J., United States of America). The concentration of GM-CSF used was determined by ELISA. […]
For orientation: In flow cytometry, cells or beads pass a laser one at a time.

For assay [2], the system named is OVA-expressing EL-4 cells. In words: Induction of OVA-specific CTL in mice immunized with OVA mRNA transfected DC (standard cytotoxicity assay). In kind it is in vivo, mice (C57BL/6). As for the experimental part:
FIG. 4 is a graph depicting the induction of OVA CTL in mice immunized with OVA mRNA transfected DC. Mice were immunized as described in FIG. 3 except that DC were not stained with CFSE. Splenocytes were harvested after 8 days and either analyzed directly for CTL (left panel) or incubated for 5 days in the presence of OVA mRNA transfected DC (right panel). CTL activity was determined using a standard cytotoxicity assay and OVA-expressing EL-4 cells, and EL-4 cells as targets. (iDC: immature DC; mDC: mature DC; solid gray square: iDC and OVA-expressing EL-4 cells; solid black oval: […] adjuvant and OVA-expressing EL-4 cells; solid black square: mDC and OVA-expressing EL-4 cells; open gray square: iDC and EL4 cells; open black oval: […] adjuvant and EL4 cells; open black square: mDC and EL4 cells). FIG. 5 is a graph depicting the induction of OVA specific CTL with immature DC during in situ maturation with Imiquimod (sold under the trademark […] by 3M of St. Paul, Minn., United States of America) and poly arginine. Experimental details are as described for FIG. 4. Here, in addition to […] adjuvant, Imiquimod ([…] brand) and poly arginine (poly-arg) were used to induce local “inflammation” prior to immunization with the OVA mRNA transfected immature DC. The […] clinically approved cream formulation of Imiquimod was applied to the ear surface 15 minutes prior to DC injection. Poly-arg was injected into the ear pinna (50 μl; 100 μg/ml) 15 minutes prior to DC injection. (open square: iDC; solid circle: […] adjuvant; solid triangle: […] adjuvant; open triangle: iDC+poly-arginine; solid square: mDC). FIG. 6 is a graph depicting the induction of OVA specific CTL with immature DC during in situ maturation with Imiquimod ([…] brand). […] Antigen loaded immature or mature DC were injected into the ear pinna and mice were evaluated for (a) migration of the DC to the draining auricular lymph node or (b) induction of OVA CTL. […] See […], Mohr H., “A fluorescence-based assay for quantitation of lymphokine-activated killer cell activity”, J Immunol Methods (1989) 119:45-51.

[3] abbreviates: FIG. 5, injection site pretreated 15 minutes prior to injection of OVA mRNA transfected immature DC.

In the case of `CC(C)Cn1cnc2c(N)nc3ccccc3c21` [Imiquimod], in assay [1], the “migration, % of the injected DC” value came to 9.2%. Moreover, the “CTL response (OVA-specific CTL)” value is reported as “almost as effective as ADJUPRIME™ adjuvant” in assay [2] (setting [3]) and “more potent CTL response than the ex vivo matured DC” in assay [2] (FIG. 6, Imiquimod (ALDARA brand) applied 4 hours before injection of OVA mRNA transfected immature DC).

Take poly arginine [poly-arg]: the “CTL response (OVA-specific CTL)” value in assay [2] (setting [3]) is “the effect of poly-arg is small”.
